Test results: patent US20060257481A1, “Sustained release formulation and dosing schedule of leukotriene synthesis inhibitor for human therapy” (deCODE Genetics ehf., priority 2005, published 2006)
Read-outs that look alike come from different tables or passages of the source.

What was measured:
[1] = system: LTB4 production (ex vivo); test: Study DG-031-203 open label dose ranging: capacity for LTB4 production ex vivo; type: in vivo, human
Experimental: (§1) The study also collected information on the dose-related effect of DG-031 on capacity for LTB4 production (ex vivo), plasma MPO, and serum-CRP. […] The pattern observed supported a concentration dependent pharmacologic effect of DG-031 on capacity for LTB4 production measured ex vivo. The effects on LTB4 production amounted to a 30% (p=0.016) and 25% (p=0.094) reduction with the 375 mg BID and 250 mg TID doses, respectively.

[2] = healthy volunteers, cited from earlier work
[3] = cited from earlier work; for Safety and tolerability: asthma patients
MCP-1 = test: Study DG-031-201: MCP-1; type: in vivo, human; details: difference visit 2 to visit 5; 500 and 750 mg/day vs placebo cohort
Experimental: (§2) Patients who met the study eligebility criteria were enrolled and randomized into 3 different dose-level groups: (1) 64 patients on 250 mg/day therapy with DG-031 (250 mg q.d.), vs placebo; (2) 64 patients on 500 mg/day therapy with DG-031 (250 mg b.i.d.) vs placebo; and (3) 63 patients on 750 mg/day therapy with DG-031 (250 mg t.i.d.) vs placebo. […] All patients received 3 tablets per day. Treatment periods, 4 weeks in duration each, were separated by a 2-week washout period. The placebo tablets were identical in shape, color, form and taste to the active tablets except that they contained no active drug ingredients. Treatment with DG-031 or placebo was in addition to the subject's standard care, including all medications and treatment plan as prescribed by the subject's cardiologist prior to enrolment. A total of 191 subjects were enrolled, with 172 completing all 8 visits or 8 patients short of the target of 180 patients.
All data were analyzed according to a pre-established statistical analysis plan (SAP) and by intention-to-treat (ITT). Each arm of the study, as well as pooled sets (combining dose levels), was considered for the primary analysis. […] The difference between DG-031 and placebo treatment was the primary outcome, assessed separately for each of the biomarkers. […]

Lp-PLA2 = test: Study DG-031-201 cross-over trial: Lp-PLA2; type: in vivo, human; details: highest dose; [3%,16%], p=0.006
Experimental: as §2, with “patients. […]” for “patients.”
All data were analyzed according to a pre-established statistical analysis plan (SAP) and by intention-to-treat (ITT). […] The difference between DG-031 and placebo treatment was the primary outcome, assessed separately for each of the biomarkers. […]

MPO = test: Study DG-031-203 open label dose ranging: plasma MPO; type: in vivo, human
Experimental: as §1

## O=C(O)[C@@H](c1ccc(OCc2ccc3ccccc3n2)cc1)C1CCCC1 [DG-031, (R)-(+)-alpha-cyclopentyl-4-(2-quinolinylmethoxy)-Benzeneacetic acid]
[1]; 250 mg TID, St. 203
  LTB4 production: −25% (St. 203)
[1]; 250 mg TID, p=0.094
  Reduction of LTB4 production ex vivo: 25%
[1]; 375 mg BID, Study 203, 2 hours, p = 0.016
  LTB4 production: −30%
[1]; 375 mg BID, p=0.016
  Reduction of LTB4 production ex vivo: 30%
[1]; 375 mg QD, Study 203, 2 hours, NS
  LTB4 production: −16%
[2]; total daily dose 100, 200, 250, 300, 500, 750 and 1000 mg, less than 14 days
  Safety and tolerability: safe and well tolerated
[2]; total daily doses 500 mg and 1000 mg, 14-42 days
  Safety and tolerability: safe and well tolerated
[3]; 750 mg/day, previous phase I-II human studies in asthma
  Tolerability: well tolerated
[3]; total daily dose 500 mg, greater than 45-365 days
  Safety and tolerability: safe and well tolerated
[3]; total daily dose 250, 500, 750 and 1000 mg, 14 days
  Safety and tolerability: safe and well tolerated
[3]; total daily doses 100, 200, 250, 500 and 1000 mg, 14-42 days
  Safety and tolerability: safe and well tolerated
MCP-1
  Carry-over effect, MCP-1: 0.07
Lp-PLA2
  Increase of Lp-PLA2: 9%
MPO; 250 mg TID, St. 203, 6 hours, P < 0.001
  MPO in plasma: −37% (St. 203)
MPO; 250 mg t.i.d., 6 hours after intake, [24%,47%], p<0.001
  Drop of plasma MPO levels: 37%
MPO; 375 mg BID, Study 203, 6 hours, NS
  MPO in plasma: −24%
MPO; 375 mg BID, p=0.067
  Lowering of plasma MPO levels: 24%
MPO; 375 mg QD, Study 203, 6 hours
  MPO in plasma: No effect
